Reference: patent US10280159B2 (AbbVie Deutschland GmbH & Co. KG, priority 2015, dated 2019)

Tests used:
Type in all cases: cell-based
human S1PR4 = molecular target: T1, human S1PR4 (Homo sapiens, UniProt O95977); assay: Intracellular Ca2+ release (FLIPR) agonist potency, S1P4; details: recombinant CHO-K1 cells expressing human S1PR4, aequorin, Gq/i5; Calcium 5 FLIPR; read-out: S1P4 EC50
T1 construct: host or cells: CHO-K1
T1 sequence (O95977 1-384): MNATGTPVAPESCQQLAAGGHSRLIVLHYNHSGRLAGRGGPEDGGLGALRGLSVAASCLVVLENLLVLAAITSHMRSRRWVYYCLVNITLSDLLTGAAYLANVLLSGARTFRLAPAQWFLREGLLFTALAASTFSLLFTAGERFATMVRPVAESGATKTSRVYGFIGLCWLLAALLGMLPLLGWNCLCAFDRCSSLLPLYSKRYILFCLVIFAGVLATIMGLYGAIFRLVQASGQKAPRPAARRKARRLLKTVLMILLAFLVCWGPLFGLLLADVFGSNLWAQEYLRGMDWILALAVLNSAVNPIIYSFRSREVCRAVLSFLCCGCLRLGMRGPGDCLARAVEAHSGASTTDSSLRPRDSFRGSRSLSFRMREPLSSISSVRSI
Procedure, shortened: (§1)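 EC50 values reflect nonlinear fits of FLIPR fluorescence data, normalized to the phospho-fingolimod curve. Cells were CHO-K1 expressing the human receptor, aequorin and Gq/i5, cultured in F-12 Ham with 10% FBS.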

human S1PR1 = molecular target: T2, human S1PR1 (Homo sapiens, UniProt P21453); assay: Intracellular Ca2+ release (FLIPR) agonist potency, S1P1; details: recombinant CHO-K1 cells expressing human S1PR1, aequorin, Gq/i5; Calcium 5 FLIPR; read-out: S1P1 EC50
T2 construct: host or cells: CHO-K1
Procedure, shortened: as §1

human S1PR5 = molecular target: T3, human S1PR5 (Homo sapiens, UniProt Q9H228); assay: Intracellular Ca2+ release (FLIPR) agonist potency, S1P5; details: recombinant CHO-K1 cells expressing human S1PR5, aequorin, Gq/i5; Calcium 5 FLIPR; read-out: S1P5 EC50 range
T3 construct: host or cells: CHO-K1
Procedure, shortened: as §1

T3 sequence (Q9H228 whole entry): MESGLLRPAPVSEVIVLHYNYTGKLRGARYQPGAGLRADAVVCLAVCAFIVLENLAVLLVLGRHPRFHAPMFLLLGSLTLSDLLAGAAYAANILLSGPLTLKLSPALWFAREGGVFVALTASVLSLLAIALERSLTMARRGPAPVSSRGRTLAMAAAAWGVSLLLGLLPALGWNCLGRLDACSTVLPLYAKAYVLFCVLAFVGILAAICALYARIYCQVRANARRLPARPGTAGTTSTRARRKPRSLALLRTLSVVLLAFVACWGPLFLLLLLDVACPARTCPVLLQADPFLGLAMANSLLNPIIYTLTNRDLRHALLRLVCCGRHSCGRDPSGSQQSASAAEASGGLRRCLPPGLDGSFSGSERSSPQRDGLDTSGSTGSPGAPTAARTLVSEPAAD
T2 sequence (P21453 whole entry): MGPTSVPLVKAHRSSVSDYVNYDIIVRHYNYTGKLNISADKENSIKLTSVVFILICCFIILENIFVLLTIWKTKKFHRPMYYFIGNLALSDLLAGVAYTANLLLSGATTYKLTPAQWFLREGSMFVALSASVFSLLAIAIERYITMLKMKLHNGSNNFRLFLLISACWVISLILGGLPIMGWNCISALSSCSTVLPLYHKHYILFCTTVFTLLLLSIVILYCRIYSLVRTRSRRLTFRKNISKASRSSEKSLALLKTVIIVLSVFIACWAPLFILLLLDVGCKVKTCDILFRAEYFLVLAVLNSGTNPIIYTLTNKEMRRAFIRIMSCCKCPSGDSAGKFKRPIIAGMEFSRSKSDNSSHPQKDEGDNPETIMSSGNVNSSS

EC50 (human S1PR4)	EC50 (human S1PR1)	EC50 (human S1PR5)	SMILES
< 1000 nM	> 1000 nM	< 10 nM	CCc1cccc(Cl)c1COc1ccc2c(c1)OCC(N1CCC(C(=O)O)C1)C2 (stereo not drawn) [Compound 128, 1-(7-((2-chloro-6-ethylbenzyl)oxy)chroman-3-yl)pyrrolidine-3-carboxylic acid]
< 1000 nM	> 1000 nM	1000 to 10000 nM	O=C(O)C1CCN(C2COc3cc(OCc4ccccc4)ccc3C2)CC1 (stereo not drawn) [Compound 112, 1-(7-benzyloxychroman-3-yl)piperidine-4-carboxylic acid]
> 1000 nM	> 1000 nM	1000 to 10000 nM	O=C(O)C1CN(C2COc3c(cccc3OCc3c(Cl)cccc3Cl)C2)C1 (stereo not drawn) [Compound 225, 1-[8-[(2,6-dichlorophenyl)methoxy]chroman-3-yl]azetidine-3-carboxylic acid]
> 1000 nM	> 1000 nM	10 to 100 nM	O=C(O)C1CN(C2COc3cc(OCc4c(Cl)cccc4Cl)c(Br)cc3C2)C1 (stereo not drawn) [Compound 221, 1-[6-bromo-7-[(2,6-dichlorophenyl)methoxy]chroman-3-yl]azetidine-3-carboxylic acid]
< 1000 nM	> 1000 nM	< 10 nM	CCc1cccc(F)c1COc1ccc2c(c1)OCC(N1CC(C(=O)O)C1)C2 (single isomer, unassigned) [Compound 147, 1-(7-((2-ethyl-6-fluorobenzyl)oxy)chroman-3-yl)azetidine-3-carboxylic acid]
> 1000 nM	> 1000 nM	1000 to 10000 nM	O=C(O)C1CN(C2COc3cc(OCC4CCC4)ccc3C2)C1 (stereo not drawn) [Compound 230, 1-[7-(cyclobutylmethoxy)chroman-3-yl]azetidine-3-carboxylic acid]
< 1000 nM	> 1000 nM	< 10 nM	CCc1cccc(F)c1COc1ccc2c(c1)OCC(NCC(=O)O)C2 (stereo not drawn) [Compound 126, (7-((2-ethyl-6-fluorobenzyl)oxy)chroman-3-yl)glycine]
> 1000 nM	> 1000 nM	< 10 nM	CCc1cccc(Cl)c1COc1ccc2c(c1)OCC(OCC(=O)O)C2 (stereo not drawn) [Compound 233, ((7-((2-chloro-6-ethylbenzyl)oxy)chroman-3-yl)oxy)acetic acid]
> 1000 nM	> 1000 nM	1000 to 10000 nM	O=C(O)C1CN(C2COc3cc(OCc4ccc(C(F)(F)F)cc4F)ccc3C2)C1 (stereo not drawn) [Compound 106, 1-[7-[[2-fluoro-4-(trifluoromethyl)phenyl]methoxy]chroman-3-yl]azetidine-3-carboxylic acid]
> 1000 nM	> 1000 nM	1000 to 10000 nM	O=C(O)COC1CCc2cc(OCc3cc(Cl)ccc3F)ccc2C1 (stereo not drawn) [Compound 174, 2-[6-[(5-chloro-2-fluoro-phenyl)methoxy]tetralin-2-yl]oxyacetic acid]
< 1000 nM	> 1000 nM	< 10 nM	CCc1cccc(F)c1COc1ccc2c(c1)OCC(N1CCC(C(=O)O)C1)C2 (stereo not drawn) [Compound 127, 1-(7-((2-ethyl-6-fluorobenzyl)oxy)chroman-3-yl)pyrrolidine-3-carboxylic acid]
> 1000 nM	> 1000 nM	1000 to 10000 nM	O=C(O)CCOC1CCc2cc(OCc3ccccc3Cl)ccc2C1 (stereo not drawn) [Compound 188, 3-[6-[(2-chlorophenyl)methoxy]tetralin-2-yl]oxypropanoic acid]
> 1000 nM	> 1000 nM	1000 to 10000 nM	O=C(O)COC1CCc2cc(OCc3c(F)cccc3C(F)(F)F)ccc2C1 (stereo not drawn) [Compound 158, 2-[6-[[2-fluoro-6-(trifluoromethyl)phenyl]methoxy]tetralin-2-yl]oxyacetic acid]
> 1000 nM	> 1000 nM	100 to 1000 nM	O=C(O)C1CN(C2COc3cc(OCC4CCCCC4)ccc3C2)C1 (stereo not drawn) [Compound 109, 1-[7-(cyclohexylmethoxy)chroman-3-yl]azetidine-3-carboxylic acid]
> 1000 nM	> 1000 nM	100 to 1000 nM	CCc1cccc(Cl)c1COc1ccc2c(c1)CCC(N1CC(C(=O)N(C)OC)C1)C2 (stereo not drawn) [Compound 217, 1-[6-[(2-chloro-6-ethyl-phenyl)methoxy]tetralin-2-yl]-N-methoxy-N-methyl-azetidine-3-carboxamide]
< 1000 nM	> 1000 nM	< 10 nM	CCc1cccc(Cl)c1COc1ccc2c(c1)OCC(NC1(CC(=O)O)CCCC1)C2 (stereo not drawn) [Compound 115, 2-(1-((7-((2-chloro-6-ethylbenzyl)oxy)chroman-3-yl)amino)cyclopentyl) acetic acid]
> 1000 nM	> 1000 nM	10 to 100 nM	O=C(O)C1CN(C2COc3cc(OCc4ccccc4C(F)(F)F)ccc3C2)C1 (stereo not drawn) [Compound 62, 1-(7-((2-(trifluoromethyl)benzyl)oxy)chroman-3-yl)azetidine-3-carboxylic acid]

EC50 (human S1PR4)	EC50 (human S1PR1)	EC50 (human S1PR5)	SMILES
> 1000 nM	> 1000 nM	1000 to 10000 nM	O=C(O)COC1CCc2cc(OCc3ccc(Cl)c(Cl)c3)ccc2C1 (stereo not drawn) [Compound 199, 2-[6-[(3,4-dichlorophenyl)methoxy]tetralin-2-yl]oxyacetic acid]
< 1000 nM	> 1000 nM	100 to 1000 nM	Cc1cccc(C#Cc2ccc3c(c2)OCC(N2CC(C(=O)O)C2)C3)c1 (stereo not drawn) [Compound 43, 1-(7-((3-(methyl)phenyl)ethynyl)chroman-3-yl)azetidine-3-carboxylic acid]
> 1000 nM	> 1000 nM	10 to 100 nM	CCc1cccc(Cl)c1COc1ccc2c(c1)CCC(OCC(=O)O)C2 (single isomer, unassigned) [Compound 240]
> 1000 nM	> 1000 nM	10 to 100 nM	Cc1cc2c(cc1OCc1c(Cl)cccc1Cl)OCC(N1CC(C(=O)O)C1)C2 (stereo not drawn) [Compound 222, 1-[7-[(2,6-dichlorophenyl)methoxy]-6-methyl-chroman-3-yl]azetidine-3-carboxylic acid]
> 1000 nM	> 1000 nM	1000 to 10000 nM	O=C(O)C1CN(C2COc3cc(OCc4ccc(C(F)(F)F)cc4)ccc3C2)C1 (stereo not drawn) [Compound 57, 1-(7-((4-(trifluoromethyl)benzyl)oxy)chroman-3-yl)azetidine-3-carboxylic acid]
> 1000 nM	> 1000 nM	1000 to 10000 nM	O=C(O)C1CN(C2COc3cc(OCc4cccc(C(F)(F)F)c4F)ccc3C2)C1 (stereo not drawn) [Compound 94, 1-[7-[[2-fluoro-3-(trifluoromethyl)phenyl]methoxy]chroman-3-yl]azetidine-3-carboxylic acid]
< 1000 nM	> 1000 nM	< 10 nM	CCc1cccc(F)c1COc1ccc2c(c1)OCC(N(C)CC(=O)O)C2 (stereo not drawn) [Compound 72, 2-((7-((2-ethyl-6-fluorobenzyl)oxy)chroman-3-yl)(methyl)amino)acetic acid]
> 1000 nM	> 1000 nM	1000 to 10000 nM	COc1cccc(F)c1COc1ccc2c(c1)CCC(OCC(=O)O)C2 (stereo not drawn) [Compound 157, 2-[6-[(2-fluoro-6-methoxy-phenyl)methoxy]tetralin-2-yl]oxyacetic acid]
> 1000 nM	> 1000 nM	1000 to 10000 nM	O=C(O)COC1CCc2cc(OCc3ccc(Cl)cc3Cl)ccc2C1 (stereo not drawn) [Compound 162, 2-[6-[(2,4-dichlorophenyl)methoxy]tetralin-2-yl]oxyacetic acid]
> 1000 nM	> 1000 nM	100 to 1000 nM	O=C(O)COC1CCc2cc(OCc3c(F)cccc3Cl)ccc2C1 (stereo not drawn) [Compound 169, 2-[6-[(2-chloro-6-fluoro-phenyl)methoxy]tetralin-2-yl]oxyacetic acid]
> 1000 nM	> 1000 nM	1000 to 10000 nM	O=C(O)C1CN(C2COc3cc(OCCOc4ccc(F)cc4)ccc3C2)C1 (stereo not drawn) [Compound 93, 1-[7-[2-(4-fluorophenoxy)ethoxy]chroman-3-yl]azetidine-3-carboxylic acid]
> 1000 nM	> 1000 nM	1000 to 10000 nM	COc1ccc(COc2ccc3c(c2)CCC(OCC(=O)O)C3)cc1 (stereo not drawn) [Compound 165, 2-[6-[(4-methoxyphenyl)methoxy]tetralin-2-yl]oxyacetic acid]
< 1000 nM	> 1000 nM	< 10 nM	CCc1cccc(Cl)c1COc1ccc2c(c1)OCC(N1CCC(CC(=O)O)C1)C2 (stereo not drawn) [Compound 125, 2-(1-(7-((2-chloro-6-ethylbenzyl)oxy)chroman-3-yl)pyrrolidin-3-yl)acetic acid]
> 1000 nM	> 1000 nM	100 to 1000 nM	O=C(O)CNC1COc2cc(OCC3CCCCC3)ccc2C1 (stereo not drawn) [Compound 113, 2-[[7-(cyclohexylmethoxy)chroman-3-yl]amino]acetic acid]
> 1000 nM	> 1000 nM	1000 to 10000 nM	Cc1ccc(F)c(COc2ccc3c(c2)CCC(OCC(=O)O)C3)c1F (stereo not drawn) [Compound 149, 2-[6-[(2,6-difluoro-3-methyl-phenyl)methoxy]tetralin-2-yl]oxyacetic acid]
> 1000 nM	> 1000 nM	< 10 nM	CN(CC(=O)O)C1COc2cc(OCc3ccc(OCc4cccc(Cl)c4)cc3)ccc2C1 (stereo not drawn) [Compound 134, N-(7-((4-((3-chlorobenzyl)oxy)benzyl)oxy)chroman-3-yl)-N-methylglycine]
